In assay [1] the test system is human beta cells. Description: Ki67 labeling of insulin-positive cells in dispersed human cadaveric islets. Format: cell-based. Particulars: for Ki67 labeling with other DYRK1A inhibitors in combination therapy: DYRK1A inhibitor other than harmine, with TGFβSF inhibitor. An excerpt:
(§1) Primary antisera were: BrdU (ab6326, Abcam), Ki67 (RM-9106-sl, Thermo Scientific, and MIB1, DAKO), p-Histone-3 (06-570, Millipore), insulin (A0564, DAKO), p-yH2AX (MA1-2022, Thermo Scientific), NKX6.1 (F55A10-c, University of Iowa), PDX1 (07-696, Millipore), MAFA (Ab26405, Abcam), Glucagon (2760s, Cell Signaling), Somatostatin (Sc-20999, Santa Cruz), Pancreatic Polypeptide (A0619, DAKO), and CK19 (Ab52625, Abcam). Species-specific mouse Alexa Fluor 488 (A-11029, Life Technologies), rat Alexa Fluor 594 (A-11007, Life Technologies), rabbit Alexa Fluor 488 (A11037, Life Technologies) or guinea pig Alexa Fluor 488 (A-11073, Life Technologies) secondary antisera were selected as appropriate.

Another assay relates to SMAD signaling. Nature of the assay: Immunoblots of SMADs in whole human islets. Format: cell-based. The text has this: (§2) The immunoblots are representative of separate experiments in human islets from three different donors. […] Ad.shLacZ indicates a sh-adenovirus for the Ad.shDYRK1A.
Primary antisera employed were: SMAD2/3 (Cell Signaling, 8685p), p-SMAD3 (Abcam, ab52903), SMAD4 (Sc-7966, Santa Cruz), SMAD1/5/9 (ab66737, Abcam), p15INK4 (Abcam, ab53034), p16INK4a (Sc-468, Santa Cruz), p21CIP (556430, BD), p57CIP2 (2557s, Cell Signaling) and GAPDH (Sc-25778, Santa Cruz).
To ascertain whether the harmine-TGFβSF inhibitor combination affected SMAD signaling, human islets were incubated with harmine alone or in combination with two TGFβSF inhibitors: LY or ALK5 (FIG. 5A).
(In general: Immunoblotting shows a protein as a band on a membrane.)

The test system of a further assay is mouse beta cells. Nature of the assay: Mouse pancreas study: beta cell Ki-67/insulin after 7 days i.p. treatment. Format: in vivo, C57BL/6N mice. To be noted: C57BL6N mice, i.p. daily 7 days, harmine 10 mg/kg, GW788388 30 mg/kg. As to the method: (§3) On day seven, treatment was begun exactly as in FIG. 9A for seven days.
Male C57BL/6N mice (12 week-old) received vehicle (saline), 10 mg kg^−1 harmine HCl, 30 mg kg^−1 GW788388 or the combination of harmine and GW788388 by intraperitoneal injection daily for 7 days. Mice were sacrificed on day 7, pancreata harvested, fixed in 10% neutral buffered formalin, paraffin embedded, and sectioned. […] A minimum of 2,000 beta cells per pancreas were counted. Investigators were blinded as to group assignments.
(§4) To evaluate the effects of harmine and TGFβ inhibitor in vivo, C57BL6N mice were administered vehicle ([…]), harmine, GW788388, or the combination of harmine plus GW788388 intraperitoneally for seven days, sacrificed, and evaluated for insulin and Ki67. […] Next, human cadaveric islets were transplanted into NOD-SCID mice.

Assay [2] relates to human beta cells. Nature of the assay: Human islet transplant under renal capsule of NOD-SCID mice: beta cell Ki-67/insulin. To be noted: i.p. daily 7 days, harmine 10 mg/kg, GW788388 30 mg/kg. The class given is in vivo, human islets in NOD-SCID mice. Here is the method:
as §3
Mice were allowed to recover for 7 days and then treated with vehicle (saline), 10 mg kg-1 harmine HCl, 30 mg kg-1 GW788388 or the combination of harmine and GW788388 by intraperitoneal injection daily for 7 days. Mice were sacrificed on day 7, renal grafts harvested, fixed in 10% neutral buffered formalin, paraffin embedded and sectioned.
as §4

Another assay has as its system TGFβ superfamily members. Description: RNAseq of whole human islets. The class given is cell-based.
For assay [3], the system named is human beta cells. Description: Ki67 immunolabeling in human islets with adenoviral silencing or overexpression plus drug. Format: cell-based. As to the method: as §2
Unless otherwise described, all transductions were performed using 150 moi for one hour, and studies performed 72 hours later. […] Adenoviruses encoding human SMAD6 or SMAD7 were prepared as described using cDNAs encoding SMAD6 and SMAD7 obtained from Harvard PlasmID Database.
as §1

In the next assay the test system is beta cells of T2D islets. Description: Ki67 immunolabeling in islets from donors with Type 2 diabetes. Particulars: harmine alone.
Assay [4] has as its system cell cycle activators and cell cycle inhibitors. Nature of the assay: qPCR of cell cycle activators and inhibitors in whole human islets.
Description: Gene expression in dispersed islets was analyzed by real-time PCR performed on an ABI 7500 System.
Reasoning that harmine and harmine-TGFβ inhibitors (and DYRK1A and SMADs, respectively) must ultimately orchestrate cell cycle entry via cell cycle activators and cell cycle inhibitors, gene expression of cell cycle activators and inhibitors was examined in whole islets treated with vehicle, harmine, TGFβ inhibitor or the harmine-TGFβ inhibitor combination (FIGS. 6A-6B).

“Also recorded” adds a separate entry of the source.

Excerpt for beta cells of T2D islets: Islets from normal and Type 2 diabetes adult cadaveric pancreas donors were obtained from the NIH/NIDDK-supported Integrated Islet Distribution Program and from the Alberta Diabetes Institute. Depending on the experiments performed, islets were used either as intact islets, or were first dispersed with Accutase (Sigma, St. Louis, Mo.) onto coverslips.

Turning to `CCN1/C(=C/C(C)=O)Sc2ccc(O)cc21` [INDY], in the assay on human beta cells [1], the “Ki67 labeling with other DYRK1A inhibitors in combination therapy” value is recorded as “beneficial effects”.
`COc1ccc2c(c1)[nH]c1c(C)nccc12` [harmine]: in the assay on SMAD signaling, the “p-SMAD3 (SMAD3 phosphorylation), immunoblot” value (from here on “p-SMAD3”) was “reductions; also recorded: reduced” and the “total SMAD1/5/9, immunoblot” value is given as “reductions; also recorded: reduced”. Moreover, the “mouse beta cell proliferation in vivo (Ki67/insulin)” value in the assay with mouse beta cells is recorded as “induced beta cell proliferation”. Moreover, the “human beta cell proliferation in vivo in transplanted islets” value in the assay on human beta cells [2] is “increased this rate”. Besides, in the assay on TGFβ superfamily members (Donor 1), the “BMP1 (RNAseq)” value came out at 4 FPKM, the “BMP5 (RNAseq)” value worked out at 26 FPKM, the “GDF11 (RNAseq)” value was found to be 3 FPKM and the “INHA (RNAseq)” value is given as 1 FPKM. Further, in the assay on TGFβ superfamily members (Donor 1), the “TGFB2 (RNAseq)” value was 3 FPKM, the “TGFBR1 (RNAseq)” value came to 9 FPKM and the “TGFBR2 (RNAseq)” value is 3 FPKM. Further, the “TGFB1 (RNAseq)” value in the assay on TGFβ superfamily members (Donor 1, row r7) was found to be 24 FPKM. Further, the “TGFB1 (RNAseq), second line so named” value in the assay with TGFβ superfamily members (Donor 1, row r11) came out at 62 FPKM. Besides, in the assay on TGFβ superfamily members (Donor 2), the “BMP1 (RNAseq)” value stood at 3 FPKM, the “BMP5 (RNAseq)” value was determined as 20 FPKM, the “GDF11 (RNAseq)” value is listed as 3 FPKM and the “INHA (RNAseq)” value is recorded as 1 FPKM. Besides, in the assay on TGFβ superfamily members (Donor 2), the “TGFB2 (RNAseq)” value amounted to 2 FPKM, the “TGFBR1 (RNAseq)” value is 8 FPKM and the “TGFBR2 (RNAseq)” value is listed as 3 FPKM. For the same compound, in the assay with TGFβ superfamily members (Donor 2, row r7), the “TGFB1 (RNAseq)” value was 19 FPKM. Also, the “TGFB1 (RNAseq), second line so named” value in the assay with TGFβ superfamily members (Donor 2, row r11) is recorded as 22 FPKM. In addition, in the assay with TGFβ superfamily members (RNAseq), the “changes in TGFβSF members on harmine treatment of human islets” value was “notable changes”. For the same compound, the “harmine-induced proliferation with overexpression of SMADs 6 and 7” value in the assay with human beta cells [3] (adenoviral overexpression, 100 moi) is listed as “markedly enhanced”. In the assay with human beta cells [3] (adenoviral silencing, 150 moi each), the “harmine-induced proliferation with silencing of SMADs 2, 3, and 4” value is given as “further enhanced”. Moreover, the “proliferation with silencing of CDKN1A and/or CDKN1C” value with human beta cells [3] (harmine 10 μM) is reported as “robust human beta cell proliferation”. Further, the “Ki67 immunolabeling in T2D islets” value in the assay on beta cells of T2D islets is listed as “increased Ki67 immunolabeling to the same degree observed in non-diabetic islet donors”. For the same compound, in assay [4] (harmine 10 μM, LY364947 5 μM, qPCR), the “expression of cell cycle activators (e.g., CDK1, CCNA1, CCNE2, CDC25A)” value was “induced expression”. Further, the “cell cycle inhibitor expression other than CDKN1C” value in assay [4] (harmine alone) was “modest and limited effects”. Besides, the “decline of CDKN1C (p57KIP2) expression” value in assay [4] (harmine alone, qPCR) is on record as roughly 50%.
Consider `Cc1cccc(-c2n[nH]cc2-c2ccc3ncccc3n2)n1` [ALK5 inhibitor, 2-(3-(6-Methylpyridin-2-yl)-1H-pyrazol-4-yl)-1,5 napththyridine], for which, in the assay with SMAD signaling, the “p-SMAD3” value is “further reduced”.
As for `O=C(NC1CCOCC1)c1ccc(-c2cc(-c3c[nH]nc3-c3ccccn3)ccn2)cc1` [GW788388, 4-(4-(3-(pyridin-2-yl)-1H-pyrazol-4-yl)pyridin-2-yl)-N-(tetrahydro-2H-pyran-4-yl)benzamide], the “mouse beta cell proliferation in vivo (Ki67/insulin)” value in the assay on mouse beta cells is listed as “induced beta cell proliferation”. Moreover, the “human beta cell proliferation in vivo in transplanted islets” value in the assay with human beta cells [2] is recorded as “had no effect”. Besides, in the assay with human beta cells [3] (Ad.shDYRK1A plus TGFβ inhibitor), the “proliferation with adenoviral silencing of DYRK1A” value is recorded as “markedly accentuates proliferation”.
Take `c1ccc(-c2n[nH]cc2-c2ccnc3ccccc23)nc1` [LY364947, 4-[3-(2-Pyridinyl)-1H-pyrazol-4-yl]-quinoline]: the “p-SMAD3” value with SMAD signaling is on record as “further reduced”.
Turning to `O=C1NC(Nc2ccccc2)=N/C1=C\c1ccc2c(c1)OCO2` [leucettine-41], the “activation of human beta cell proliferation” value with human beta cells [1] (DYRK1A inhibitor) is recorded as “able to activate human beta cell proliferation”. For the same compound, the “Ki67 labeling with other DYRK1A inhibitors in combination therapy” value in the assay on human beta cells [1] is recorded as “beneficial effects”.
